In assay [1] the test system is MCF7 (breast cancer). Nature of the assay: MTT cell viability test, MCF7. The class given is cell-based, Human. As to conditions: read-out: IC50, MCF7. The protocol:
(§1) Human cell cultures of tumor origin (A549 (lung carcinoma), HCT116 (colon adenocarcinoma), MCF7 (breast cancer), RD (embryonic rhabdomyosarcoma)), and the line of non-transformed cells HEK293 (embryonic kidney) provided by the Laboratory of Tumor Cell Genetics at the N.N. Blokhin Russian Cancer Research Institute, as well as by the Institute of Cytology of the Russian Academy of Sciences, were grown in DMEM (Gibco, Scotland, UK) and MEM (Gibco, Scotland, UK) containing fetal calf serum (10% by volume) (ThermoFisher Scientific, Paisley, UK), L-glutamine (2 mM) (Gibco, Scotland, UK), and penicillin-streptomycin (1% by volume) (PanEco, Moscow, Russia).
(§2) Cellular viability was determined by the MTT test. […] After 24 h of incubation, various concentrations of the test compounds dissolved in DMSO (≤1%) were added to the cell cultures, the solvent was added to the control wells in an equal volume, and then the cells were cultured under the same conditions for 72 h. After the incubation time, MTT (3-(4,5-dimethylthiazol-2-yl)-2,5-diphenyltetrazolium bromide, 5 mg/mL) was added to each well, and the plates were further incubated for 2 h (until a characteristic color appeared). Then, the formazan granules were dissolved in DMSO.
(§3) Using a plate analyzer (Cytation3, BioTech Instruments Inc., USA), the optical density was determined at λ = 530 nm.

The test system of assay [2] is A549 (lung carcinoma). Nature of the assay: MTT cell viability test, A549. As to conditions: read-out: IC50, A549. Type of assay: cell-based, Human. The protocol: as §1, §2, §3
Assay [3] relates to HEK293 (embryonic kidney). Nature of the assay: MTT cell viability test, non-transformed HEK293. As to conditions: read-out: IC50, HEK293. The class given is cell-based, Human. The protocol: as §1, §2, §3
Assay [4] deals with RD (embryonic rhabdomyosarcoma). Nature of the assay: MTT cell viability test, RD. The class given is cell-based, Human. As to conditions: 72 h, read-out: IC50, RD. The protocol: as §1, §2, §3
Assay [5] concerns the target T1, cytochrome-c-oxidase complex of the mitochondrial respiratory chain (IV) (Rattus norvegicus, UniProt P00406+P05503+P05505).
T1 construct: Rat heart mitochondria were isolated by differential centrifugation; from tissue; host or cells: rat heart mitochondria
Nature of the assay: Respiratory chain complex IV, OCR of isolated rat heart mitochondria (Seahorse). As to conditions: isolated rat heart mitochondria 10 μg/well, compounds at 30 μM. Type of assay: biochemical. The protocol:
(§4) Rat heart mitochondria were isolated by differential centrifugation using ice-cold buffer containing KCl (120 mM) and HEPES (20 mM), pH = 7.4, and a trypsin inhibitor. The mitochondrial yield ranged from 5 to 10 mg/mL of protein in the heart sediment. Mitochondria were stored in plastic containers at 4 °C.
(§5) The effect of the compounds on the functioning of the electron transport chain complexes was carried out using an Agilent Seahorse XF96e Analyzer (Seahorse Bioscience, Billerica, MA, USA) according to their ability to change the rate of oxygen uptake by isolated rat heart mitochondria (10 μg/well). The following modulators were used: activators of complex I of the electron transport chain, NADH dehydrogenase,—glutamate/malate; rotenone (2 μM) (Sigma Aldrich, Saint Louis, USA)—a tissue respiration blocker that stops the transfer of electrons from the reduced form of NADH to cytochrome b, was used as complex I inhibitor; potassium succinate ([…]) (Dia-M, Moscow, Russia), which is a substrate of complex II of the electron transport chain, made it possible to assess mitochondrial respiration mediated by succinate dehydrogenase; complex III (ubiquinol-cytochrome c-oxidoreductase) inhibitor—a blocker of cellular respiration antimycin A (Sigma Aldrich, Saint Louis, USA), as well as ascorbate/TMPD (0.5 μM) (Sigma Aldrich, Saint Louis, USA), allowed us to evaluate the cytochrome-c-oxidase mediated respiration of organelles.

In assay [6] the test system is HCT116 (colon adenocarcinoma). Nature of the assay: MTT cell viability test, HCT116. Type of assay: cell-based, Human. As to conditions: read-out: IC50, HCT116. The procedure: as §1, §2, §3
The target in assay [7] is T2, complex II of the electron transport chain (Rattus norvegicus, UniProt P21913+Q641Z9+Q6PCT8+Q920L2).
T2 construct: Rat heart mitochondria were isolated by differential centrifugation; from tissue; host or cells: rat heart mitochondria
T2 sequence (Q920L2 35-656): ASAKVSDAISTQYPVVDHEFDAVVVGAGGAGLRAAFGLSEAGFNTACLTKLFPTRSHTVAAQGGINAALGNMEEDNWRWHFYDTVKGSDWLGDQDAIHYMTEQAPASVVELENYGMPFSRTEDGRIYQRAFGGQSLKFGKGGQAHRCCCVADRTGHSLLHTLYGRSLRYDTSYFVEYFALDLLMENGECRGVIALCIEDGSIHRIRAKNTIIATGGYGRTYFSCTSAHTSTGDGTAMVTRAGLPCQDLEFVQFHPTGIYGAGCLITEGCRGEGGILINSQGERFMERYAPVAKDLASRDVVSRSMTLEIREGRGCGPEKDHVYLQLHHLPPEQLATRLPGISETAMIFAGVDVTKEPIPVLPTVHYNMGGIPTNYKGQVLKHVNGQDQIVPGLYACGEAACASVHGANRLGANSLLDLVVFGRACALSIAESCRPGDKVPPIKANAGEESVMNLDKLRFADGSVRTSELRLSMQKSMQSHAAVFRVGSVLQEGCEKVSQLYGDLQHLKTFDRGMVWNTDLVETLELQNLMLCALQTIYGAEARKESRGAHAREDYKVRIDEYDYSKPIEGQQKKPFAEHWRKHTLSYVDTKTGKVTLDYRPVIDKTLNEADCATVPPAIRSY
T2 sequence (P21913 31-282): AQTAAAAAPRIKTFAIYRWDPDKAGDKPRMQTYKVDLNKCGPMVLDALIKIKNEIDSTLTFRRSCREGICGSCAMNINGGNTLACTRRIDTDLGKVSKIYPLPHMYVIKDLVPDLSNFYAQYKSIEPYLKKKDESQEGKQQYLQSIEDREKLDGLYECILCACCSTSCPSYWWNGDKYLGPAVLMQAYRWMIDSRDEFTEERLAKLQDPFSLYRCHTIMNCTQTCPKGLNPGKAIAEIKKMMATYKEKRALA
T2 sequence (Q641Z9 30-169 limits assumed): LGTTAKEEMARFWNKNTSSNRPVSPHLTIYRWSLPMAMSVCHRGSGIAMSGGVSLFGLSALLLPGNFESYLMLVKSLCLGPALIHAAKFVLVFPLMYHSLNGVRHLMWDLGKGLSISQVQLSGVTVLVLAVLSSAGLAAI
T2 sequence (Q6PCT8 57-159): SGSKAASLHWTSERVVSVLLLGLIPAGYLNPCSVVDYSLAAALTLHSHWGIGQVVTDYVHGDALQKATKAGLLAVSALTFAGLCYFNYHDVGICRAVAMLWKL
Nature of the assay: Respiratory chain complex II, OCR of isolated rat heart mitochondria (Seahorse). As to conditions: isolated rat heart mitochondria 10 μg/well, compounds at 30 μM. Type of assay: biochemical. The protocol:
as §4, §5

Assay [8] concerns rat heart mitochondria. Nature of the assay: Mitochondrial swelling. Type of assay: biochemical. As to conditions: rat heart mitochondria 0.5 mg/mL, compounds at 100 μM, Ca2+ 25 μM. The procedure: as §4
Mitochondrial swelling was recorded by the light transmission of the rat heart mitochondrial suspension at λ = 540 nm using a Victor 3 plate analyzer (Perkin Elmer, Germany). The swelling rate was estimated as △A540/min and was calculated as the tangent of the angle of the steepest dependence curve part △A540 versus time.

[9] abbreviates: MTT, 72 h, non-transformed cells.
Where [10] appears, read: Homo sapiens, MCF7, 72 h, MTT, 72 h.
The mark [11] stands for this setting: Homo sapiens, A549, 72 h, MTT, 72 h.
Where [12] appears, read: Homo sapiens, HEK293, 72 h, MTT, 72 h, non-transformed cells.
Setting [13] is: Homo sapiens, HCT-116, 72 h, MTT, 72 h.

The structures appear in SMILES notation. Where two headings read alike, the source gives them in different places.

T1 sequence (P00406 whole entry, other chains not shown): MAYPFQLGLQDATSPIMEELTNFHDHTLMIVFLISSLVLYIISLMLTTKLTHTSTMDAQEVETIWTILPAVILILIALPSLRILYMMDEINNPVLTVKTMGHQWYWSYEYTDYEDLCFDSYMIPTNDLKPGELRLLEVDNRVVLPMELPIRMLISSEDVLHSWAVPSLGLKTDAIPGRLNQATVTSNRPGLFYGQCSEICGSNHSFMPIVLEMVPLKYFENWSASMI
T1 sequence (P05505 whole entry, other chains not shown): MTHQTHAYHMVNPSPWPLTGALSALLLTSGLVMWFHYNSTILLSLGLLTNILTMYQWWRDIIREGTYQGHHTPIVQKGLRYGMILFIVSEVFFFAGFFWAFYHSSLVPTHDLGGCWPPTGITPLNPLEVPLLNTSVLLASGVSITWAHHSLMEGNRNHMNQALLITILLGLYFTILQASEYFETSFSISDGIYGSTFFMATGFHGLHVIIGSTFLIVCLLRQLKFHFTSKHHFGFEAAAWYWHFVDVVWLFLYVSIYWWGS

In the case of `COc1cccc2c1C(=O)c1c(O)c3c(c(O)c1C2=O)C[C@@](O)(C(=O)CO)C[C@@H]3O[C@H]1C[C@H](NC[C@H]2C(=O)O[C@@H]3C[C@@]4(C)CCC[C@H](C)C4=C[C@@H]32)[C@H](O)[C@H](C)O1` [Compound 2a], the IC50 in assay [1] (MTT, 72 h) came out at 26.8 ± 0.65 µM; in assay [2] (MTT, 72 h) it was 3.29 ± 0.11 µM; in assay [3] (setting [9]), 29.83 ± 0.18 µM; in assay [4] (MTT), 2.67 ± 0.11 µM; in assay [6] (MTT, 72 h) it was 4.55 ± 0.03 µM. The “Work of Respiratory Chain Complexes, % Decrease in OCR of Control, IV” value in assay [5] is listed as 20.45 ± 5.85%. Besides, in assay [7], the “Work of Respiratory Chain Complexes, % Decrease in OCR of Control, II” value was 39.11 ± 4.05%. In assay [8], the “Mitochondrial Swelling, % of Ca2+-Induced Swelling” value is 31.51 ± 8.35%.

Consider `C=C1C(=O)O[C@@H]2C[C@@]3(C)CCCC(C)=C3C[C@H]12` [Compound 3, alloalantholactone, reference compound], for which the IC50 in assay [1] (setting [10]) turned out to be 17.9 ± 0.68 µM; in assay [2] (setting [11]), 23.1 ± 1.18 µM; in assay [3] (setting [12]), 35.9 ± 0.48 µM; in assay [4] (Homo sapiens, MTT), 8.82 ± 0.14 µM; in assay [6] (setting [13]), 34.5 ± 3.51 µM.

For `C=C1C(=O)OC2CC3(C)CCCC4(CO4)C3CC12` (stereo not shown) [Compound 4, epoxy-isoalantholactone, reference compound], the 50% inhibitory concentration (IC50) in assay [1] (setting [10]) was determined as 31.87 ± 0.14 µM; in assay [2] (setting [11]), 83.51 ± 0.26 µM; in assay [3] (setting [12]), 106 ± 4.13 µM; in assay [4] (Homo sapiens, MTT), 18.6 ± 0.21 µM; in assay [6] (setting [13]) it was 21.4 ± 0.32 µM.

For the molecule `C=C1C(=O)O[C@@H]2C[C@@]3(C)CCC[C@H](C)[C@@]34O[C@H]4[C@H]12` [Compound 5, epoxyalantholactolactone, reference compound], the half-inhibitory concentration (IC50) stood at 11.4 ± 0.32 µM in assay [1] (setting [10]); 21.5 ± 0.75 µM in assay [2] (setting [11]); 38.1 ± 1.08 µM in assay [3] (setting [12]); 4.81 ± 0.12 µM in assay [4] (Homo sapiens, MTT); 5.12 ± 0.05 µM in assay [6] (setting [13]).

For the molecule `COc1cccc2c1C(=O)c1c(O)c3c(c(O)c1C2=O)CC(O)(C(C)=O)CC3OC1CC(NCC2C(=O)OC3CC4(C)CCCC(C)C45OC5C32)C(O)C(C)O1` (stereo not shown) [Compound 5b], the IC50 was determined as 1.84 ± 0.06 µM in assay [1] (MTT, 72 h); 1.19 ± 0.02 µM in assay [2] (MTT, 72 h); 18.19 ± 0.18 µM in assay [3] (setting [9]); 0.8 µM in assay [4] (MTT); 1.3 ± 0.02 µM in assay [6] (MTT, 72 h). In assay [5], the “Work of Respiratory Chain Complexes, % Decrease in OCR of Control, IV” value came out at 21.56 ± 3.66%. Further, in assay [7], the “Work of Respiratory Chain Complexes, % Decrease in OCR of Control, II” value is reported as “— (“—” indicates activity absence for compounds (≤10%) in a particular test)”. In addition, the “Mitochondrial Swelling, % of Ca2+-Induced Swelling” value in assay [8] is “— (“—” indicates activity absence for compounds (≤10%) in a particular test)”.

Turning to `C=C1C(=O)OC2CC3(C)CCCC4(C)OC34CC12` (stereo not shown) [Compound 6, epoxyalloalantholactone, reference compound], the IC50 was 38.6 ± 0.86 µM in assay [1] (setting [10]); 24 ± 0.8 µM in assay [1] (MTT, 72 h); 61.7 ± 2.4 µM in assay [2] (setting [11]); 50.3 ± 1.11 µM in assay [2] (MTT, 72 h); 29.77 ± 0.05 µM in assay [3] (setting [12]); 18.5 ± 0.2 µM in assay [3] (setting [9]). Also, the half-maximal inhibitory concentration (IC50) was 16.8 ± 0.28 µM in assay [4] (Homo sapiens, MTT); 8.77 ± 0.01 µM in assay [4] (MTT); 10.8 ± 0.18 µM in assay [6] (setting [13]); 9.75 ± 0.57 µM in assay [6] (MTT, 72 h).

Regarding `C=C1C(=O)O[C@@H]2C[C@@]3(C)CCC=C(C)C3=C[C@H]12` [Compound 8, alanthodiene, reference compound], the half-maximal inhibitory concentration (IC50) in assay [1] (Homo sapiens, MCF7, 72 h) was found to be 4.31 ± 0.02 µM; in assay [2] (Homo sapiens, A549, 72 h), 59.9 ± 2.26 µM; in assay [3] (Homo sapiens, HEK293, 72 h) it was 9.07 ± 0.25 µM; in assay [4] (Homo sapiens), 4.94 ± 0.09 µM; in assay [6] (Homo sapiens, HCT-116, 72 h), 4.99 ± 0.06 µM.
